Data published in patent publication US11529340B2 (priority 2016, dated 2022).
Entries after “also recorded” stand apart in the source; their conditions may differ. Like-named read-outs stand apart in the source and are kept apart here.

What was measured:
[1] = test system: thermal nociceptive responses in mice; experiment: Hot water tail flick test, intrathecal injection, naive mice; format: in vivo
Method: Subjects were given an intrathecal injection of loperamide, OMI, or combination, and post-drug response were analyzed as a % of maximum possible effect, which was used to generate dose-response curves.
Thermal nociception was measured either using a warm water tail flick test or using the Hargreaves hindpaw method as described previously (Hargreaves, K. et al., Pain 32: 77-88, 1988). Briefly, animals were placed on a heated glass floor (30° C.) and a small plastic box restricted their movement. After allowing the animals to acclimate to the testing environment for a minimum of 15 minutes, a radiant heat lamp was shone on the left hindpaw until the animal withdrew the paw. Paw withdrawal latencies (PWLs) were measured by an IITC plantar stimulator analgesia meter, and a cutoff time of 20 seconds was used to prevent tissue damage. An average of 3-5 PWLs were taken, with a minimum of 30 seconds between tests.
Data Analysis: The ED50, in nanomoles with 95% confidence limits, of all agonists and combinations were calculated using the graded dose-response curve method of Tallarida and Murray (Tallarida, R. J. and Murray, R. B., Manual of pharmacological calculations with computer programs, pp. 26-31, Springer-Verlag, NY, 1987). […] Isobolographic analyses were performed using the numerical method (Tallarida, Pain 49: 93-97, 1992; Ossipov et al., Anesthesiology 86:1-9 1997). […]

[2] = test system: light-driven mEPSC frequency in spinal cord slices from Nav1.8-ChR2 mice; experiment: Spinal cord slice electrophysiology: inhibition of 470 nm light-evoked mEPSCs; format: cell-based; settings: increasing concentrations superfused on slice
[3] = test system: thermal nociceptive responses in naive mice; experiment: Hargreaves assay, naive mice; format: in vivo
[4] = test system: CFA-induced hyperalgesia in mice; experiment: Hargreaves assay, CFA-induced inflammatory hyperalgesia; format: in vivo; settings: for ED50: Mus musculus
[5] = test system: SNI-induced allodynia in mice; experiment: Spared nerve injury (SNI)-induced mechanical allodynia, electronic von Frey; settings: subcutaneous
[6] = test system: MORs and DORs in CFA-inflamed mice; experiment: Antagonism of Lo-OMI anti-hyperalgesia by opioid antagonists (Hargreaves, CFA); format: in vivo; settings: intraplantar and subcutaneous; β-FNA 24 hours before, others co-administered
mice [7] = settings: cited from earlier work
mice [8] = experiment: Naloxone withdrawal jumping protocol (dependence); format: in vivo; settings: for dependence: naloxone-precipitated
Method: Morphine, OMI and BOMI were tested for dependence using the naloxone withdrawal jumping protocol (Marshall, I. et al., Br. J. Pharmacol. 1969, 37, 505P-506P; and El-kadi, A. O. et al., General Pharmacology: The Vascular System 1994, 25, 1505-1510). On day one the ED80 dose was injected 3 times per day 4 hours apart using the s.c. route of administration. On day 2 two times ED80 and day 3 and 4 with four times the ED80 were injected at the same times used on day one. On the fifth day each animal received a bolus of the top dose followed three hours later by a single dose of naloxone s.c. (10 or 50 mg/kg) and placed in individual circular Plexiglas observation chambers (6.5″×9″). […] At 10 mg/kg and 50 mg/kg naloxone precipitated withdrawal in the morphine-treated animals with a mean 91.5 jumps and 99.3 jumps, respectively. The average number of jumps for both OMI and BOMI after both doses of naloxone was 1 jump.

mice [9] = experiment: Oral gavage antinociception (% MPE) in mice; format: in vivo; settings: for time of peak antinociceptive effect: oral gavage; for % MPE: oral, 5 mg/kg
Method: Animals are restrained by the scruff and held upright (vertically) to maintain a straight line from the mouth to the esophagus. Prior to dosing, the distance from the oral cavity to the caudal point of the sternum is gauged with the gavage needle. Using a bulb-tipped gastric gavage needle attached to a 1 mL syringe, the needle is passed along the roof of the animal's mouth and into the esophagus, stopping at the pre-measured distance. The drug is slowly injected and the needle removed. Drugs are administered in a volume of 10 mL/kg.

[10] = test system: HEK-293 cells transfected with opioid receptors (mu, delta, kappa homomers; mu-delta, mu-kappa, kappa-delta heteromers); experiment: Intracellular calcium release assay (FLIPR); format: cell-based; settings: HEK-293 with chimeric Δ6-Gqi4-myr, opioid receptor homomers and heteromers
Method: The target compounds were tested for agonist activity using an intracellular calcium release assay. Briefly, HEK-293 cells were transfected with a chimeric Δ6-Gqi4-myr protein employed to measure intracellular Ca^+2 ion release upon receptor activation. Cells stably expressing the chimeric protein were selected from transiently transfected cells in zeocin-containing medium (DMEM+10% fetal bovine serum+1% penicillin/streptomycin+[…] zeocin). Opioid receptors were transiently transfected using different combinations of DNA for heteromers (mu-delta, mu-kappa, kappa-delta) or for singly expressing homomers (mu, delta, kappa). Intracellular calcium release was measured using a FLIPR calcium kit (Molecular Devices) in a FlexStation3 apparatus. For each compound, concentration-response profiles were established by measuring the fluorescence for 90 seconds after addition of the compound and determining the peak effect (maximum-minimum). A concentration-response curve was plotted for the change in Relative Fluorescence Units (ΔRFU) vs. concentration. The calcium mobilization of the antagonist NTI and partial agonist OMI were studied.

mice [11] = experiment: Antinociceptive tolerance, day 1 vs day 2 % MPE; format: in vivo; settings: i.t.
Method: Eighty percent effective doses of OMI (4) or BOMI (6) were administered either i.c.v. or i.t. once on day 1 and again on day 2 and the % MPE determined on both days.

mice [12] = experiment: In vivo antagonism of OMI and BOMI antinociception by opioid antagonists; settings: agonist administered intrathecally and intracerebroventricularly
Method: FIGS. 1a-1d show antagonism studies of OMI and BOMI (6) in vivo from Example 2.
OMI (Portoghese, P. S., et al., J. Med. Chem. 1990, 33, 1714-20) and BOMI were tested in vivo. […] Oral gavage of OMI and (6) produced the peak antinociceptive effect at 30 minutes; further they were taken in vivo studies in mice and challenged by antagonists such as NTI, norBNI and β-FNA. The results are depicted in FIGS. 1a-1d. […] Therefore, it was concluded that OMI and (6) both are MOR-DOR heteromer-selective agonists.

mice [13] = settings: intrathecal; cited from earlier work
mice [14] = experiment: Antinociceptive potency (% MPE) after i.t. or i.c.v. administration; format: in vivo
Method: OMI (4) or BOMI (6) were administered via either i.t. or i.c.v. routes and percent maximum possible antinociception (% MPE) determined at 5 or 10 min post-treatment, respectively.

[15] = Mus musculus, sc, 0.75 h, subcutaneous, CFA-naive, tested 45 minutes later, read-out: ED50
[16] = intraplantar, naive, tested 15 minutes later
[17] = sc, subcutaneous (systemic), CFA-inflamed, read-out: ED50 (anti-hyperalgesia)
[18] = systemic, CFA-inflamed, loperamide + BOMI co-administered, read-out: ED50 of the drug with the other drug (loperamide or BOMI) present
[19] = intraplantar, CFA-inflamed, loperamide + BOMI co-administered
[20] = topical solution on inflamed hindpaw, CFA
[21] = naloxone s.c. 10 mg/kg after escalating s.c. dosing
[22] = naloxone s.c. 50 mg/kg after escalating s.c. dosing

For `CN(C)C(=O)C(CCN1CCC(O)(c2ccc(Cl)cc2)CC1)(c1ccccc1)c1ccccc1` [loperamide], the ED50 [1] was 5.44 nmol, the “inhibition of light-driven mEPSC frequency” value [2] was “inhibited mEPSC frequency in a concentration-dependent manner” and the ED50 [3, 15] was 12.4 mg/kg. For the same molecule, the ED50 [3, 16] was 57.2 nmol, the ED50 [4, 17] was 2.42 mg/kg and the ED50 [4, 18] was 0.06 mg/kg. For the same molecule, the “ED50 (anti-hyperalgesia)” value ([4]; intraplantar, CFA-inflamed) was 6.37 nmol, the “ED50 of the drug when the other drug (loperamide or BOMI) is also present” value [4, 19] was 0.5 nmol and the “ED50 (anti-hyperalgesia)” value [4, 20] was 227 µM. For the same molecule, the “time of peak anti-allodynia post-injection” value [5] was 1 h.
With `COC(=O)/C=C/C(=O)N[C@@H]1CC[C@@]2(O)[C@H]3Cc4ccc(O)c5c4[C@@]2(CCN3CC2CC2)[C@H]1O5` [β-FNA, beta-funaltrexamine] the “reversal of the anti-hyperalgesic effects of Lo-OMI” value (shortened to “reversal”) [6] was “significantly reversed the anti-hyperalgesic effects of Lo-OMI in a dose-dependent manner”.
For `C[C@]12N[C@H](Cc3ccccc31)c1ccccc12` [MK801], the “ED50 for reduction in rotarod performance” value (mice [7]; intrathecal) is given as 11 nmol and the “reduction in rotarod performance” value (mice [7]; intrathecal) is given as 80%.
For `C=CC[N+]1(C)CC[C@]23c4c5ccc(O)c4O[C@H]2C(=O)CC[C@@]3(O)[C@H]1C5` (stereo partly drawn) [naloxone methiodide], the “reversal” value [6] was “significantly reversed the anti-hyperalgesic effects of Lo-OMI in a dose-dependent manner; also recorded: completely ablated the behavioral anti-hyperalgesia”.
For `Clc1cccc(Cl)c1N=C1NCCN1` [clonidine], the “impairment of rotarod performance / motor function” value (mice [7]; literature or earlier results, route as stated) is given as “dose-dependently and fully impairs rotarod performance”.
For `CN1CC[C@]23c4c5ccc(O)c4O[C@H]2[C@@H](O)C=C[C@H]3[C@H]1C5` [morphine], the “number of jumps in 10 minutes (mean)” value (mice [8]; [21]) was 91.5 jumps and the “number of jumps in 10 minutes (mean)” value (mice [8]; [22]) was 99.3 jumps.
For `CN1CC[C@]23c4c5ccc(O)c4O[C@H]2c2[nH]c4ccccc4c2C[C@@]3(O)[C@H]1C5` [OMI (4), oxymorphindole], the “time of peak antinociceptive effect” value (mice [9]) was 30 min, the “% MPE” value (mice [9]; 20 min) was 38.0 ± 8.4 % MPE and the “% MPE” value (mice [9]; 30 min) was 29.5 ± 4.5 % MPE. The “% MPE” value (mice [9]; 60 min) was 38.5 ± 10.7 % MPE, the calcium mobilization profile [10] was “demonstrated a profile of MOR-DOR heteromer selectivity” and the calcium mobilization profile ([10]; listed as OMI) was “selective mobilization in the MOR-DOR co-expressing cell line”. The antinociceptive tolerance (mice [11]) was “neither agent injected i.t. produced antinociceptive tolerance”, the antinociceptive tolerance (mice [11]; listed as OMI) was “did not produce tolerance” and the “number of jumps in 10 minutes (mean)” value (mice [8]; [21]) was 1 jumps. For the same molecule, the “number of jumps in 10 minutes (mean)” value (mice [8]; [22]) was 1 jumps, the dependence (mice [8]; listed as OMI) was “neither OMI nor (6) produced dependence; also recorded: did not create any dependence” and the “antagonism by β-FNA” value (mice [12]) was “antagonized by β-FNA”. For the same molecule, the ED50 [1] was 3.52 nmol, the “inhibition of light-driven mEPSC frequency” value [2] was “inhibited mEPSC frequency in a concentration-dependent manner” and the ED50 [3, 15] was 5.13 mg/kg. For the same molecule, the ED50 [3, 16] was 33.7 nmol, the ED50 [4, 17] was 1.12 mg/kg and the “ED50 (anti-hyperalgesia)” value ([4]; intraplantar, CFA-inflamed) was 12.3 nmol. The “ED50 (anti-hyperalgesia)” value [4, 20] was 166 µM, the “interaction with the MOR agonist morphine” value (mice [13]) was “synergized with the MOR agonist morphine” and the “time of peak anti-allodynia post-injection” value [5] was 1 h.
With `Oc1ccc2c3c1O[C@H]1c4[nH]c5ccccc5c4C[C@@]4(O)[C@@H](C2)N(CC2CC2)CC[C@]314` [NTI, naltrindole] the calcium mobilization profile [10] was “devoid of any calcium mobilization; also recorded: did not show calcium mobilization in any cell line tested” and the “reversal” value [6] was “significantly reversed the anti-hyperalgesic effects of Lo-OMI in a dose-dependent manner”.
For `CN1CC[C@]23c4c5ccc(O)c4O[C@H]2c2c(c4ccccc4n2Cc2ccccc2)C[C@@]3(O)C1C5` [BOMI (6), (4bS,8aS,14bR)-14-benzyl-7-methyl-5,6,7,8,8a,9,14,14b-octahydro-4,8-methanobenzofuro[2,3-a]pyrido[4,3-b]carbazole-1,8a-diol], the “time of peak antinociceptive effect” value (mice [9]) was 30 min, the “% MPE” value (mice [9]; 20 min) was 38.3 ± 10.4 % MPE and the “% MPE” value (mice [9]; 30 min) was 19.6 ± 4.8 % MPE. For the same molecule, the “% MPE” value (mice [9]; 60 min) was 42.8 ± 6.2 % MPE, the “% MPE” value (mice [9]; 120 min) was 38.4 ± 8.4 % MPE and the calcium mobilization profile ([10]; listed as 6) was “predominantly MOR-DOR heteromer-selective”. The calcium mobilization profile ([10]; listed as BOMI) was “mixed, stimulation of MOR most active”, the “potency relative to parent compound OMI (4)” value (mice [14]; i.c.v., % MPE at 10 min) was “three times more potent” and the “potency relative to parent compound OMI (4)” value (mice [14]; i.t., % MPE at 5 min) was 20 times. For the same molecule, the antinociceptive tolerance (mice [11]) was “neither agent injected i.t. produced antinociceptive tolerance”, the antinociceptive tolerance (mice [11]; listed as 6) was “did not produce tolerance” and the “number of jumps in 10 minutes (mean)” value (mice [8]; [21]) was 1 jumps. The “number of jumps in 10 minutes (mean)” value (mice [8]; [22]) was 1 jumps, the dependence (mice [8]; listed as 6) was “neither OMI nor (6) produced dependence” and the dependence (mice [8]; listed as BOMI) was “did not create any dependence”. The “antagonism by β-FNA” value (mice [12]) was “antagonized by β-FNA; also recorded: antagonism of (6) by β-FNA was more significant”, the ED50 [4, 17] was 0.08 mg/kg and the ED50 [4, 18] was 0.003 mg/kg. For the same molecule, the “ED50 (anti-hyperalgesia)” value ([4]; intraplantar, CFA-inflamed) was 0.34 nmol and the “ED50 of the drug when the other drug (loperamide or BOMI) is also present” value [4, 19] was 0.02 nmol.
